The supplement of paper PMC11061612

Columns and labels:
[1] = test system: DU-4475 (Breast Carcinoma); assay: combination Emax (second highest fraction inhibited in the dose matrix, 72 h); higher = more inhibition; extreme values may be limits of the assay
Summary of the method: (§1)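 Cell lines grown in DMEM/F12 or RPMI with 10% FBS were plated in 1536-well plates and held 24 hours at 37°C, 5% CO2 before 72 hours of exposure to two-drug dose matrices, with DMSO typically at 0.2%. CellTiter-Glo 2.0 luminescence gave viability, which was converted to inhibition. Vehicle wells were set to 0 and blank wells to 1. Combination Emax is the second-highest inhibition in the matrix, and Bliss excess is the observed combination effect minus the expected EA + EB − EA·EB, where EA and EB are the single-agent effects.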

[2] = test system: HCC1428 (Breast Carcinoma); assay: as above
Summary of the method: as §1

[3] = test system: DMS-53 (Small Cell Lung Carcinoma); assay: as above
Summary of the method: as §1

[4] = test system: JVM-2 (B-Cell Non-Hodgkin's Lymphoma); assay: as above
Summary of the method: as §1

[5] = test system: NCI-H441 (Lung Adenocarcinoma); assay: Bliss excess, mean over the matrix (fraction); higher = more synergy
Summary of the method: as §1

[6] = test system: ESO26 (Esophageal Adenocarcinoma); assay: as above
Summary of the method: as §1

[7] = test system: SW620 (Colorectal Carcinoma); assay: as above
Summary of the method: as §1

A101D (Melanoma) = assay: as above
Summary of the method: as §1

[8] = test system: NCI-H1651 (Lung Adenocarcinoma); assay: as above
Summary of the method: as §1

[9] = test system: JHH-2 (Hepatocellular Carcinoma); assay: as above
Summary of the method: as §1

[10] = test system: KYSE-140 (Esophageal Squamous Cell Carcinoma); assay: as above
Summary of the method: as §1

[11] = test system: CA46 (Burkitt's Lymphoma); assay: as above
Summary of the method: as §1

[12] = test system: SK-HEP-1 (Hepatocellular Carcinoma); assay: as above
Summary of the method: as §1

EB2 (Burkitt's Lymphoma) = assay: as above
Summary of the method: as §1

5637 (Bladder Carcinoma) = assay: as above
Summary of the method: as §1

[13] = test system: UACC-812 (Breast Carcinoma); assay: as above
Summary of the method: as §1

[14] = test system: Jurkat (T-Lymphoblastic Leukemia); assay: as above
Summary of the method: as §1

PEO1 (Ovarian Carcinoma) = assay: as above
Summary of the method: as §1

NB13 (Neuroblastoma) [15] = assay: combination Emax (second highest fraction inhibited in the dose matrix, 72 h); higher = more inhibition; extreme values may be limits of the assay
Summary of the method: as §1

NB13 (Neuroblastoma) [16] = assay: Bliss excess, mean over the matrix (fraction); higher = more synergy
Summary of the method: as §1
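Wherever Bliss excess, mean over the matrix is given: after 72 h of two-drug dosing.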

Row | Compound | combination Emax [1] | combination Emax [2] | combination Emax [3] | combination Emax [4] | Bliss excess [5] | Bliss excess [6] | Bliss excess [7] | Bliss excess (A101D (Melanoma)) | Bliss excess [8] | Bliss excess [9] | Bliss excess [10] | Bliss excess [11] | Bliss excess [12] | Bliss excess (EB2 (Burkitt's Lymphoma)) | Bliss excess (5637 (Bladder Carcinoma)) | Bliss excess [13] | Bliss excess [14] | Bliss excess (PEO1 (Ovarian Carcinoma)) | combination Emax (NB13 (Neuroblastoma) [15]) | Bliss excess (NB13 (Neuroblastoma) [16])
1 | CN(C)CCCOc1ccc(-c2ccc3ncc4c(c3c2)n(C2CCOCC2)c(=O)n4C)cn1 [AZD0156] + O=C(c1cc(Cc2n[nH]c(=O)c3ccccc23)ccc1F)N1CCN(C(=O)C2CC2)CC1 [Olaparib] (first compound max 3 µM, partner max 3 µM) | 0.434 | 0.228 | 0.255 | 0.533 | -0.0003 | -0.0039 | 0.0953 | 0.134 | 0.132 | 0.0203 | -0.0069 | 0.0156 | 0.0576 | 0.0892 | 0.138 | -0.113 | 0.174 | -0.0891 |  | 
2 | C=CCn1c(=O)c2cnc(Nc3ccc(N4CCN(C)CC4)cc3)nc2n1-c1cccc(C(C)(C)O)n1 [AZD1775] + C1CN(CCC1(C(=O)N[C@@H](CCO)C2=CC=C(C=C2)Cl)N)C3=NC=NC4=C3C=CN4 [Capivasertib] (first compound max 3 µM, partner max 3 µM) | 0.998 | 0.524 | 0.619 | 0.93 | -0.0427 | -0.0424 | -0.0402 | 0.0152 | -0.0367 | -0.122 | -0.0859 | -0.0101 | 0.0958 | -0.0204 | 0.0064 | -0.0007 | 0.185 | -0.0697 |  | 
3 | Cc1c2c(nn1C)CSCc1cc(n(C)n1)CSc1cc(c3ccccc3c1)OCCCc1c(C(=O)O)n(C)c3c-2c(Cl)ccc13 [AZD5991] + CCN(CCO)CCCOc1ccc2c(Nc3cc(CC(=O)Nc4cccc(F)c4)[nH]n3)ncnc2c1 [AZD2811] (first compound max 1 µM, 7x7, partner max 1 µM) | 0.378 | 0.974 | 0.56 | 0.772 | -0.0142 |  | 0.0591 | -0.0169 | -0.0386 | -0.0213 | 0.0169 | 0.0251 | 0.0084 | 0.0391 | 0.0103 | -0.0149 | 0.0119 | 0.0502 | 0.615 | 0.131
4 | NC1(C(=O)N[C@@H](CCO)c2ccc(Cl)cc2)CCN(c2ncnc3[nH]ccc23)CC1 [Capivasertib] + CC(=O)c1c(C)c2cnc(Nc3ccc(N4CCNCC4)cn3)nc2n(C2CCCC2)c1=O [Palbociclib] (first compound max 10 µM, 7x7, partner max 10 µM) | 0.295 | 0.18 | 0.25 | 0.823 | -0.0304 | -0.0512 | -0.019 | 0.0157 | -0.0393 | -0.0028 | -0.0427 | 0.0033 | -0.109 | -0.0213 | -0.0521 |  | 0.0314 | -0.0509 | 0.392 | -0.076
5 | NC1(C(=O)N[C@@H](CCO)c2ccc(Cl)cc2)CCN(c2ncnc3[nH]ccc23)CC1 [Capivasertib] + CC(C)n1c(=O)n(C)c2cnc3cc(F)c(-c4ccc(OCCCN5CCCCC5)nc4)cc3c21 [AZD1390] (first compound max 10 µM, 7x7, partner max 0.3 µM) | 0.331 | 0.186 | 0.187 | 0.707 | -0.0711 | -0.053 | -0.0529 | -0.118 | -0.0404 | -0.0449 | -0.033 | -0.049 | -0.0321 | 0.0109 | -0.052 |  | -0.047 | -0.0601 | 0.254 | -0.0584
6 | NC1(C(=O)N[C@@H](CCO)c2ccc(Cl)cc2)CCN(c2ncnc3[nH]ccc23)CC1 [Capivasertib] + CCN(CCO)CCCOc1ccc2c(Nc3cc(CC(=O)Nc4cccc(F)c4)[nH]n3)ncnc2c1 [AZD2811] (first compound max 10 µM, 7x7, partner max 1 µM) | 0.679 | 0.465 | 0.238 | 0.755 | -0.0425 | -0.0308 | -0.029 | -0.0282 | -0.0381 | -0.0437 | -0.0096 | -0.0519 | -0.0553 | -0.0299 | -0.101 |  | -0.0289 | -0.0134 | 0.534 | -0.007
7 | NC1(C(=O)N[C@@H](CCO)c2ccc(Cl)cc2)CCN(c2ncnc3[nH]ccc23)CC1 [Capivasertib] + COc1nnc2ccc(N3CCC(c4ccc(OCCN5CCN(C)C(=O)[C@H]5C)cc4)CC3)nn12 [AZD5153] (first compound max 10 µM, 7x7, partner max 1 µM) | 0.979 | 0.571 | 0.164 | 0.79 | -0.006 | 0.0358 | 0.0026 | 0.0062 | -0.0361 | 0.0064 | 0.0298 | -0.0183 | -0.0784 | -0.0966 | 0.0035 |  | 0.0593 | 0.0529 | 0.775 | 0.0532
8 | NC1(C(=O)N[C@@H](CCO)c2ccc(Cl)cc2)CCN(c2ncnc3[nH]ccc23)CC1 [Capivasertib] + C[C@@H]1COCCN1C2=NC(=NC(=C2)C3(CC3)[S@](=N)(=O)C)C4=C5C=CNC5=NC=C4 [AZD6738] (first compound max 10 µM, 7x7, partner max 10 µM) | 0.987 | 0.318 | 0.34 | 0.864 | -0.0011 | -0.0364 | -0.0475 | -0.107 | -0.0528 | -0.0651 | -0.0846 | 0.0324 | -0.0744 | -0.0714 | -0.0846 |  | -0.0403 | -0.0225 | 0.896 | -0.0823
9 | NC1(C(=O)N[C@@H](CCO)c2ccc(Cl)cc2)CCN(c2ncnc3[nH]ccc23)CC1 [Capivasertib] + Cn1cnc2c(F)c(Nc3ccc(Br)cc3Cl)c(C(=O)NOCCO)cc21 [Selumetinib] (first compound max 10 µM, 7x7, partner max 10 µM) | 1 | 0.171 | 0.301 | 0.737 | -0.0041 | 0.0818 | 0.0186 | 0.0628 | -0.0156 | 0.016 | -0.0003 | 0.0039 | -0.0083 | -0.0049 | -0.0187 |  | 0.009 | -0.0358 | 0.369 | -0.0062
10 | CS(=O)(=O)CCNCc1ccc(-c2ccc3ncnc(Nc4ccc(OCc5cccc(F)c5)c(Cl)c4)c3c2)o1 [Lapatinib] + C[C@@H](Oc1cc(-c2cnn(C3CCNCC3)c2)cnc1N)c1c(Cl)ccc(F)c1Cl [Crizotinib] (first compound max 10 µM, 7x7, partner max 10 µM) | 0.989 | 0.471 | 0.25 | 0.918 | -0.0412 | -0.0293 | -0.0736 | -0.0587 | -0.0331 | -0.0831 | -0.0083 | 0.0216 | -0.0259 | -0.0705 | -0.0285 |  | 0.0331 | -0.0422 | 0.949 | -0.0778
11 | CS(=O)(=O)CCNCc1ccc(-c2ccc3ncnc(Nc4ccc(OCc5cccc(F)c5)c(Cl)c4)c3c2)o1 [Lapatinib] + NC1(c2ccc(-c3nc4ccn5c(=O)[nH]nc5c4cc3-c3ccccc3)cc2)CCC1 [MK-2206] (first compound max 10 µM, 7x7, partner max 10 µM) | 0.983 | 0.308 | 0.544 |  | -0.0033 |  | -0.0275 | -0.0638 | -0.0008 | -0.0371 |  |  | -0.0936 | -0.0348 |  |  |  | -0.0687 | 0.952 | -0.0348
12 | CC(=O)c1c(C)c2cnc(Nc3ccc(N4CCNCC4)cn3)nc2n(C2CCCC2)c1=O [Palbociclib] + CC1(C)CCC(CN2CCN(c3ccc(C(=O)NS(=O)(=O)c4ccc(NCC5CCOCC5)c([N+](=O)[O-])c4)c(Oc4cnc5[nH]ccc5c4)c3)CC2)=C(c2ccc(Cl)cc2)C1 [Venetoclax] (first compound max 10 µM, 7x7, partner max 1 µM) | 0.153 | 0.0427 | 0.327 | 0.762 | -0.0237 | -0.0364 | -0.0248 | -0.0025 | -0.038 | 0.0031 | -0.0285 | -0.0004 | -0.167 | -0.044 | -0.0149 |  | 0.0157 | -0.0062 | 0.283 | -0.103
13 | CC(=O)c1c(C)c2cnc(Nc3ccc(N4CCNCC4)cn3)nc2n(C2CCCC2)c1=O [Palbociclib] + Cc1c2c(nn1C)CSCc1cc(n(C)n1)CSc1cc(c3ccccc3c1)OCCCc1c(C(=O)O)n(C)c3c-2c(Cl)ccc13 [AZD5991] (first compound max 10 µM, 7x7, partner max 1 µM) | 0.231 | 0.952 | 0.263 | 0.704 | -0.0362 | -0.0467 | -0.0292 | -0.0091 | -0.0239 | -0.0475 | -0.0814 | -0.0242 | 0.0434 | -0.0352 | -0.0342 |  | -0.083 | -0.0483 | 0.389 | 0.0041
14 | CC(=O)c1c(C)c2cnc(Nc3ccc(N4CCNCC4)cn3)nc2n(C2CCCC2)c1=O [Palbociclib] + Cn1cnc2c(F)c(Nc3ccc(Br)cc3Cl)c(C(=O)NOCCO)cc21 [Selumetinib] (first compound max 10 µM, 7x7, partner max 10 µM) | 1 | 0.165 | 0.212 | 0.774 | 0.0506 | 0.0104 | 0.0191 | -0.0907 | -0.0391 | 0.0347 | -0.0387 | -0.0504 | -0.114 | -0.018 | -0.0288 |  | -0.0297 | -0.0055 | 0.333 | -0.0391
15 | CCc1c2c(nc3ccc(O)cc13)-c1cc3c(c(=O)n1C2)COC(=O)[C@]3(O)CC [SN-38] + O=C(c1cc(Cc2n[nH]c(=O)c3ccccc23)ccc1F)N1CCN(C(=O)C2CC2)CC1 [Olaparib] (first compound max 0.3 µM, 7x7, partner max 10 µM) | 0.942 |  | 0.735 | 0.934 | 0.0449 | 0.0237 | 0.0524 | 0.114 | 0.0252 | -0.0442 |  |  | 0.0077 | 0.0348 |  | 0.0333 |  | 0.0523 | 0.832 | -0.017
